Data: ChEMBL document CHEMBL3991601, “The target landscape of clinical kinase drugs” (Science, 2017)
Where a name gives a salt, the structure may show the parent alone. Calls of active or inactive are those of the source.

Columns and labels:
[1] = molecular target: T1, ATP-dependent RNA helicase DHX30 (Homo sapiens, UniProt Q7L2E3)
T1 sequence (Q7L2E3 whole entry): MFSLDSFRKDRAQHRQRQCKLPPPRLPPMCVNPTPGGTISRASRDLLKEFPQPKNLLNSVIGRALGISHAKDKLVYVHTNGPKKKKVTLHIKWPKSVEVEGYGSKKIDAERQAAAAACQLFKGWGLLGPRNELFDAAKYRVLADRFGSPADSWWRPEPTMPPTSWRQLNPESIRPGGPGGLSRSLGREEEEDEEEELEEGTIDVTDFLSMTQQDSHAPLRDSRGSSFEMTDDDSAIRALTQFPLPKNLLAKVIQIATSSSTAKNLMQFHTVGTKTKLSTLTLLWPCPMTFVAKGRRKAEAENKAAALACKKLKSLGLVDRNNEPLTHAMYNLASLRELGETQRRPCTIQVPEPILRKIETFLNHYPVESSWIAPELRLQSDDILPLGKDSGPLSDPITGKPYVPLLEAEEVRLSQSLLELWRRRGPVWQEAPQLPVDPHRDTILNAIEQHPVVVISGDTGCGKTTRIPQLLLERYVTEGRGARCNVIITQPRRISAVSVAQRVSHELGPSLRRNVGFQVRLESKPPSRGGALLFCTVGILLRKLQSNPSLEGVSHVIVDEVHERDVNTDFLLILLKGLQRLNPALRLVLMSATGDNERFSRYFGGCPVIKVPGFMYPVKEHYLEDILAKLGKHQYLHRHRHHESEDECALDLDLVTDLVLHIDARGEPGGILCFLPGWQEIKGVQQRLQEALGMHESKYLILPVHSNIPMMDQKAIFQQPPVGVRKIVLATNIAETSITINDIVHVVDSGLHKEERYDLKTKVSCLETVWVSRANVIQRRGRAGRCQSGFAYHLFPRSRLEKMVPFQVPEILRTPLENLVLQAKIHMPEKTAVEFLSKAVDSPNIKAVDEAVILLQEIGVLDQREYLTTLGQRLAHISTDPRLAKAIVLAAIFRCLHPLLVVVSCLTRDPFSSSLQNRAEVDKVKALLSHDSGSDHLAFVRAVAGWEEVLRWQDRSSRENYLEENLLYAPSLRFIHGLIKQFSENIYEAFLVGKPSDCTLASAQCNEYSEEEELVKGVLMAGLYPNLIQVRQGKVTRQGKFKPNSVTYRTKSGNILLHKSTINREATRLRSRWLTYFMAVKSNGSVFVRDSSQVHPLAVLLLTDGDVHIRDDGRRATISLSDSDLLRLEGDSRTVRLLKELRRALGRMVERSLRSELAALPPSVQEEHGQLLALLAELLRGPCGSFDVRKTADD

[2] = molecular target: Tyrosine-protein kinase FRK (Homo sapiens, UniProt P42685)
[3] = molecular target: T2, Acyl-CoA dehydrogenase family member 11 (Homo sapiens, UniProt Q709F0)
T2 sequence (Q709F0 whole entry): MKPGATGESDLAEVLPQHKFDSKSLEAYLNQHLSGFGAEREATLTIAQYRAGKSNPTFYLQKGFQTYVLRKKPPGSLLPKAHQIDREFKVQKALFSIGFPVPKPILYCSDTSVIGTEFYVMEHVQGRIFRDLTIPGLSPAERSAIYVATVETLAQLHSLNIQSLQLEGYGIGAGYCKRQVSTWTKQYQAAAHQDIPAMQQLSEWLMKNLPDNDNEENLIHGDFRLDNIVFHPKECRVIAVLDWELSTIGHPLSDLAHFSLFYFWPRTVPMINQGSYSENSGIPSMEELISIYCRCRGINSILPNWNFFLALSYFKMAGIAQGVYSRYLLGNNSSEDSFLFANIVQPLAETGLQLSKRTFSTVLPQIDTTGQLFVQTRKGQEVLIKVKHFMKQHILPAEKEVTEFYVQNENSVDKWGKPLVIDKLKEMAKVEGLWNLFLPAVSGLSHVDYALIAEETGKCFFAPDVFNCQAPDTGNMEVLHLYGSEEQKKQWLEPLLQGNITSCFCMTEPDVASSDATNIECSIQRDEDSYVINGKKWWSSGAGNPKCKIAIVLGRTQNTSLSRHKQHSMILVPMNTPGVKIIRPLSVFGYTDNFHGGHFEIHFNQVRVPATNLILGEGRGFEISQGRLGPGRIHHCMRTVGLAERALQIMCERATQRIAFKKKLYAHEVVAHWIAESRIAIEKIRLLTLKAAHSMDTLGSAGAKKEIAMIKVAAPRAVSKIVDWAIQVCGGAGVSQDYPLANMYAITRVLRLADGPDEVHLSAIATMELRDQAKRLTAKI

[4] = molecular target: T3, Membrane-associated tyrosine- and threonine-specific cdc2-inhibitory kinase (Homo sapiens, UniProt Q99640)
T3 sequence (Q99640 whole entry): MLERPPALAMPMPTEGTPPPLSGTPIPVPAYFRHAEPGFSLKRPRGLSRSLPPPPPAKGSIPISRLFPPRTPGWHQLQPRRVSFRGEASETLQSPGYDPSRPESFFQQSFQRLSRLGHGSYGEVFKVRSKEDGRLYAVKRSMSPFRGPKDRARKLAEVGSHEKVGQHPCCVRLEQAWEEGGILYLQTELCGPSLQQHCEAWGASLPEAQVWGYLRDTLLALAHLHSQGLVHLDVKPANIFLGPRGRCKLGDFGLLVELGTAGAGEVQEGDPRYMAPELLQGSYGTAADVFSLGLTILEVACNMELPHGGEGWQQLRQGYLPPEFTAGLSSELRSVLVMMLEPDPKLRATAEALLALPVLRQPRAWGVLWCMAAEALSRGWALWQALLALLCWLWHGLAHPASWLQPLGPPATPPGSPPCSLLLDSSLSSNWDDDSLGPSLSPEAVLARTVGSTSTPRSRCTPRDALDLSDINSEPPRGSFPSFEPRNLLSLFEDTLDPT

[5] = molecular target: T4, AarF domain-containing protein kinase 1 (Homo sapiens, UniProt Q86TW2)
T4 sequence (Q86TW2 whole entry): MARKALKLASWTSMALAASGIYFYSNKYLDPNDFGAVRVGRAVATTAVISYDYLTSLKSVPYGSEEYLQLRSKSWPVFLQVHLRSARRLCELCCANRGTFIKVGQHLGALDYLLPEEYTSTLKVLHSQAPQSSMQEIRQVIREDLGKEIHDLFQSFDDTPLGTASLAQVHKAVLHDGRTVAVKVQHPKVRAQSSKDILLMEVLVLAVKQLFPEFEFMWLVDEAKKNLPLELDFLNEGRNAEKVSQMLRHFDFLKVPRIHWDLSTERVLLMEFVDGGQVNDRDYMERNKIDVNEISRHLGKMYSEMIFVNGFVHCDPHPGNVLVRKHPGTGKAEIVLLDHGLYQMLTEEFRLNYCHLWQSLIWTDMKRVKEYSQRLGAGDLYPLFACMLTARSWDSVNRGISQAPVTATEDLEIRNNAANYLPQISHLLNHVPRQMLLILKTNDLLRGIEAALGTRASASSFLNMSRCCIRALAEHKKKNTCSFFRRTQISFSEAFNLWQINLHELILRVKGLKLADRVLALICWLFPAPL
Note: in the data inactive means no Kd found up to 30 µM.

Tyrosine-protein kinase FRK, sequence (P42685 whole entry): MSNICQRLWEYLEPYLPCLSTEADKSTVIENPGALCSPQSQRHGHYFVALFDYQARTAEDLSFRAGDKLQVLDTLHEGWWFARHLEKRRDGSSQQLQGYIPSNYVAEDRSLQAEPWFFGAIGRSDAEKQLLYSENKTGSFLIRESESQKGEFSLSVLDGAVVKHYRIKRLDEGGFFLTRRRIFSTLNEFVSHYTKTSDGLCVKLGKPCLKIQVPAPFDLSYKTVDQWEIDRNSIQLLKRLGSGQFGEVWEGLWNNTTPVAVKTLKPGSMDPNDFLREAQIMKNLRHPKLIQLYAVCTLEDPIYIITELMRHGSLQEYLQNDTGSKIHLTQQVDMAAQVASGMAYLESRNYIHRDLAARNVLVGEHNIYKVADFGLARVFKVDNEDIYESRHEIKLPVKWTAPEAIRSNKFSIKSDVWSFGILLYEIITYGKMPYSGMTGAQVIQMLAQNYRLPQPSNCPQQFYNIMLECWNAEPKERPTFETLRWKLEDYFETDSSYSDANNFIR

**Q.** `COc1c(OCCCN2CCOCC2)ccc2c1N=C(NC(=O)c1cnc(N)nc1)N1CCN=C21` [COPANLISIB] was tested. Which Kd [1] did it give?
**A.** Its Kd is > 30 µM (inactive).

**Q.** What about the Kd [2] of the same compound?
**A.** Its Kd is > 30 µM (inactive).

**Q.** And the Kd [3]?
**A.** The Kd was > 30 µM (inactive).

**Q.** What about the Kd [4] of the same compound?
**A.** The Kd was > 30 µM (inactive).

**Q.** What about the Kd [5] of the same compound?
**A.** The Kd was > 30 µM (inactive).

**Q.** `COCC(=O)NC/C=C/c1ccc2ncnc(Nc3ccc(Oc4ccc(C)nc4)c(C)c3)c2c1` [CP-724714] was tested. Which Kd [1] did it give?
**A.** The Kd was > 30 µM (inactive).

**Q.** What about the Kd [2] of the same compound?
**A.** Its Kd is > 30 µM (inactive).

**Q.** And the Kd [3]?
**A.** Its Kd is > 30 µM (inactive).

**Q.** What about the Kd [4] of the same compound?
**A.** The Kd was > 30 µM (inactive).

**Q.** And the Kd [5]?
**A.** The Kd was > 30 µM (inactive).

**Q.** Which Kd [1] does the source give for `C#Cc1cccc(Nc2ncnc3cc(OC)c(OCCCCCCC(=O)NO)cc23)c1` [CUDC-101] here?
**A.** Its Kd is > 30 µM (inactive).

**Q.** And the Kd [2]?
**A.** The Kd was > 30 µM (inactive).

**Q.** What about the Kd [3] of the same compound?
**A.** Its Kd is > 30 µM (inactive).

**Q.** What about the Kd [4] of the same compound?
**A.** Its Kd is > 30 µM (inactive).

**Q.** And the Kd [5]?
**A.** Its Kd is > 30 µM (inactive).

**Q.** With `CCS(=O)(=O)N1CCN(c2ccc(Nc3ncc(C(N)=O)c(NC4CC4)n3)cc2)CC1` [Cerdulatinib Hydrochloride] as the compound, how does the Kd [1] read?
**A.** The Kd was > 30 µM (inactive).

**Q.** And the Kd [2]?
**A.** Its Kd is > 30 µM (inactive).

**Q.** And the Kd [3]?
**A.** The Kd was > 30 µM (inactive).

**Q.** What about the Kd [4] of the same compound?
**A.** Its Kd is > 30 µM (inactive).

**Q.** And the Kd [5]?
**A.** Its Kd is > 30 µM (inactive).

**Q.** Which results are given for `CC(C)(C)c1nc(-c2cccc(NS(=O)(=O)c3c(F)cccc3F)c2F)c(-c2ccnc(N)n2)s1` [DABRAFENIB]?
**A.** Kd [1]: > 30 µM (inactive); Kd [2]: 0.727 µM (active); Kd [3]: > 30 µM (inactive); Kd [4]: > 30 µM (inactive); Kd [5]: > 30 µM (inactive)

**Q.** Which results are given for `O=C(Nc1nc2cccc(-c3ccc(CN4CCS(=O)(=O)CC4)cc3)n2n1)C1CC1` [FILGOTINIB]?
**A.** Kd [1]: > 30 µM (inactive); Kd [2]: > 30 µM (inactive); Kd [3]: > 30 µM (inactive); Kd [4]: > 30 µM (inactive); Kd [5]: 2.03 µM (active)

**Q.** Which Kd [1] does the source give for `Cc1[nH]c(/C=C2\C(=O)Nc3ccccc32)c(C)c1CCC(=O)O` [ORANTINIB] here?
**A.** The Kd was > 30 µM (inactive).

**Q.** What about the Kd [3] of the same compound?
**A.** The Kd was > 30 µM (inactive).

**Q.** What about the Kd [4] of the same compound?
**A.** The Kd was > 30 µM (inactive).

**Q.** What about the Kd [5] of the same compound?
**A.** The Kd was > 30 µM (inactive).

**Q.** Which Kd [1] does the source give for `NC(=O)c1c(OCc2c(F)cc(Br)cc2F)nsc1NC(=O)NCCCCN1CCCC1` [OSI-632] here?
**A.** The Kd was > 30 µM (inactive).

**Q.** What about the Kd [3] of the same compound?
**A.** The Kd was > 30 µM (inactive).

**Q.** And the Kd [4]?
**A.** The Kd was > 30 µM (inactive).

**Q.** What about the Kd [5] of the same compound?
**A.** Its Kd is 0.281 µM (active).

**Q.** Which Kd [1] does the source give for `CNC(=O)c1cc(Oc2ccc(NC(=O)Nc3cc(C(C)(C)C)nn3-c3ccc4ncccc4c3)c(F)c2)ccn1` [REBASTINIB] here?
**A.** The Kd was > 30 µM (inactive).

**Q.** And the Kd [3]?
**A.** The Kd was > 30 µM (inactive).

**Q.** What about the Kd [4] of the same compound?
**A.** The Kd was > 30 µM (inactive).

**Q.** And the Kd [5]?
**A.** The Kd was > 30 µM (inactive).

**Q.** `O=C(NOCCO)c1cc(CN2OCCCC2=O)c(F)c(F)c1Nc1ccc(I)cc1F` [RO-4987655] was tested. Which Kd [1] did it give?
**A.** The Kd was > 30 µM (inactive).

**Q.** And the Kd [3]?
**A.** Its Kd is > 30 µM (inactive).

**Q.** What about the Kd [5] of the same compound?
**A.** The Kd was > 30 µM (inactive).

**Q.** How did the Kd [1] turn out when `CN1CCN(CCOc2cc(OC3CCOCC3)c3c(Nc4c(Cl)ccc5c4OCO5)ncnc3c2)CC1` [SARACATINIB] was run?
**A.** The Kd was > 30 µM (inactive).

**Q.** And the Kd [2]?
**A.** Its Kd is 2.33 µM (active).

**Q.** And the Kd [3]?
**A.** Its Kd is > 30 µM (inactive).

**Q.** What about the Kd [5] of the same compound?
**A.** The Kd was > 30 µM (inactive).
